Consider seven compounds from US12543738B2 (Bayer Aktiengesellschaft, priority 2020, dated 2026).

The nature of data set [1]: Measurement of LogP values by HPLC on reversed phase columns (EEC directive 79/831 Annex V.A8). The format is physicochemical. Particulars: method [a]: LC-UV, acidic range, 0.1% formic acid in water and acetonitrile; compounds of formula (I-1), Table 1. On the procedure: Calibration was done with straight-chain alkan2-ones (with 3 to 16 carbon atoms) with known LogP values (measurement of LogP values using retention times with linear interpolation between successive alkanones). Lambda-max-values were determined using UV-spectra from 200 nm to 400 nm and the peak values of the chromatographic signals

Another data set relates to Botrytis cinerea. The data set can be described thus: In vivo preventive test on Botrytis cinerea (grey mould). Particulars: 500 ppm of active ingredient, preventive spray on gherkin or cabbage, evaluated 4 to 5 days after inoculation, read-out: efficacy. Put shortly:
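Young plants of gherkin or cabbage were sprayed with water-diluted compound formulated in DMSO/acetone/Tween 80, with solvent-only controls. Inoculation followed 24 h later by spraying an aqueous spore suspension of Botrytis cinerea onto leaves.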

Another data set has as its system Pyrenophora teres. The experiment in a line: In vivo preventive test on Pyrenophora teres (net blotch on barley). Particulars: 240 h, 500 ppm of active ingredient, preventive spray on barley, evaluated 10 days after inoculation, read-out: efficacy. Put shortly:
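Young barley plants sprayed preventively with compound dissolved in DMSO/acetone/Tween 80 and diluted in water; controls received solvent mixture only. Leaves inoculated 24 h later by spraying an aqueous P. teres spore suspension.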

The subject of another data set is Sphaerotheca fuliginea. The data set can be described thus: In vivo preventive test on Sphaerotheca fuliginea (powdery mildew on cucurbits). Particulars: Podosphaera fuliginea, 192 h; 500 ppm of active ingredient; preventive spray on gherkin; evaluated 8 days after inoculation; read-out: efficacy. Put shortly: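 Preventive spray on young gherkin plants with compound in DMSO/acetone/Tween 80 diluted in water; controls received solvent only. Leaves inoculated 24 h later by spraying an aqueous S. fuliginea spore suspension.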

Data set [2] deals with Colletotrichum lindemuthianum. The data set can be described thus: In vivo preventive test on Colletotrichum lindemuthianum (leaf spot on bean). Particulars: 168 h, 500 ppm of active ingredient, preventive spray on bean, evaluated 7 days after inoculation, read-out: efficacy. The gist of the method: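 Young bean plants were sprayed with compound dissolved in DMSO/acetone/Tween 80 and diluted in water; controls received the solvent mixture alone. Leaves were spray-inoculated with C. lindemuthianum spore suspension 24 h after treatment (preventive).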

The subject of another data set is Alternaria alternata. The experiment in a line: Alternaria alternata in vitro cell test. The format is cell-based. Particulars: 120 h, 20 ppm of active ingredient, liquid culture, 5 days incubation, read-out: efficacy (inhibition of fungal growth). Put shortly:
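A. alternata spores in glucose–peptone–yeast extract liquid medium were exposed to DMSO-solubilized compounds. Mycelial growth was measured spectrophotometrically after 5 days. Inhibition was calculated from absorbance relative to compound-free controls.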

A further data set deals with Fusarium culmorum. The data set can be described thus: Fusarium culmorum in vitro cell test. The format is cell-based. Particulars: 96 h, 20 ppm of active ingredient, liquid culture, 4 days incubation, read-out: efficacy (inhibition of fungal growth). On the procedure: • Solvent: DMSO • Culture medium: 14.6 g anhydrous D-glucose (VWR), 7.1 g Mycological Peptone (Oxoid), 1.4 g granulated Yeast Extract (Merck), QSP 1 liter • Inoculum: spore suspension • Fungicides were solubilized in DMSO and the solution used to prepare the required range of concentrations. The final concentration of DMSO used in the assay was ≤1%.
A spore suspension of F. culmorum was prepared and diluted to the desired spore density.
Fungicides were evaluated for their ability to inhibit spore germination and mycelium growth in liquid culture assay. The compounds were added in the desired concentration to the culture medium with spores. After 4 days incubation, fungi-toxicity of compounds was determined by spectrometric measurement of mycelium growth. Inhibition of fungal growth was determined by comparing the absorbance values in wells containing the fungicides with the absorbance in control wells without fungicides.

The next data set has as its system Pyricularia Oryzae. The experiment in a line: microbe, parasite or virus in culture. The format is cell-based. Particulars: 120 h, read-out: efficacy (inhibition of fungal growth).
Data set [3] concerns Colletotrichum lindemuthianum. The experiment in a line: Colletotrichum lindemuthianum in vitro cell test. Particulars: 144 h, 20 ppm of active ingredient, liquid culture, 6 days incubation, read-out: efficacy (inhibition of fungal growth). It counts as cell-based. How it is done: • Solvent: DMSO • Culture medium: 14.6 g anhydrous D-glucose (VWR), 7.1 g Mycological Peptone (Oxoid), 1.4 g granulated Yeast Extract (Merck), QSP 1 liter • Inoculum: spores suspension Fungicides were solubilized in DMSO and the solution used to prepare the required range of concentrations. […] A spore suspension of C. lindemuthianum was prepared and diluted to the desired spore density. Fungicides were evaluated for their ability to inhibit spores germination and mycelium growth in liquid culture assay. The compounds were added in the desired concentration to the culture medium with spores. After 6 days incubation, fungi-toxicity of compounds was determined by spectrometric measurement of mycelium growth. Inhibition of fungal growth was determined by comparing the absorbance values in wells containing the fungicides with the absorbance in control wells without fungicides.

A further data set concerns Septoria tritici. The experiment in a line: Septoria tritici in vitro cell test. The format is cell-based. Particulars: Zymoseptoria tritici, 168 h; 20 ppm of active ingredient; liquid culture, 7 days incubation; read-out: efficacy (inhibition of fungal growth). How it is done:
• Solvent: DMSO • Culture medium: 1 g KH2PO4 (VWR), 1 g K2HPO4 (VWR), 0.5 g Urea (VWR), 3 g KNO3 (Prolabo), 10 g saccharose (VWR), 0.5 g MgSO4, 7H2O (Sigma), 0.07 g CaCl2, 2H2O (Prolabo), 0.2 mg MnSO4, H2O (Sigma), 0.6 mg CuSO4, 5H2O (Sigma), 7.9 mg ZnSO4, 7H2O (Sigma), 0.1 mg H3BO3 (Merck), 0.14 mg NaMoO4, 2H2O (Sigma), 2 mg thiamine (Sigma), 0.1 mg biotine (VWR), 4 mg FeSO4, 7H2O (Sigma), QSP 1 liter • Inoculum: spore suspension Fungicides were solubilized in DMSO and the solution used to prepare the required range of concentrations. […] A spore suspension of S. tritici was prepared and diluted to the desired spore density. Fungicides were evaluated for their ability to inhibit spore germination and mycelium growth in liquid culture assay. The compounds were added in the desired concentration to the culture medium with spores. […] Inhibition of fungal growth was determined by comparing the absorbance values in wells containing the fungicides with the absorbance in control wells without fungicides.

The test system of a further data set is Alternaria brassicae. The data set can be described thus: In vivo preventive test on Alternaria brassicae (leaf spot on radish or cabbage). Particulars: 144 h, 500 ppm of active ingredient, preventive spray on radish or cabbage, evaluated 6 days after inoculation, read-out: efficacy. Put shortly: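 Young radish or cabbage plants sprayed with compound dissolved in DMSO/acetone/Tween 80 and diluted in water; controls received solvent only. Leaves inoculated 24 h later by spraying an aqueous Alternaria brassicae spore suspension.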

By chromatographic logP is commonly meant a lipophilicity value derived from retention on a column. The inhibition is the drop in the measured response relative to a control, in per cent. As for `Cc1cccc(Oc2nnc(Cl)cc2C2=NOCC(Cc3ccc(Cl)cc3Cl)N2)c1F` (racemic) [Compound I-005, (5RS)-3-[6-chloro-3-(2-fluoro-3-methylphenoxy)pyridazin-4-yl]-5-(2,4-dichlorobenzyl)-5,6-dihydro-4H-1,2,4-oxadiazine], the chromatographic logP in [1] is 4.47. The pest or weed control at 500 ppm (with Botrytis cinerea; in the data set with Pyrenophora teres; in the data set with Sphaerotheca fuliginea; in data set [2]; with Alternaria brassicae) was 90 to 100% throughout. Further, the inhibition at 20 ppm (in the data set with Alternaria alternata; with Fusarium culmorum; with Pyricularia Oryzae; in [3]; in the data set with Septoria tritici) was 90 to 100% throughout.

Regarding `Cc1ccc(CC2CON=C(c3cc(C)nnc3Oc3cccc(Cl)c3F)N2)c(Br)c1` (racemic) [Compound I-006, (5RS)-5-(2-bromo-4-methylbenzyl)-3-[3-(3-chloro-2-fluorophenoxy)-6-methylpyridazin-4-yl]-5,6-dihydro-4H-1,2,4-oxadiazine], the chromatographic logP in [1] was 4.01. For the same compound, the pest or weed control at 500 ppm (with Botrytis cinerea; in the data set with Pyrenophora teres; in the data set on Sphaerotheca fuliginea; in [2]; in the data set with Alternaria brassicae) was 90 to 100% throughout. The inhibition at 20 ppm (in the data set with Alternaria alternata; with Fusarium culmorum; in the data set on Pyricularia Oryzae; in [3]; with Septoria tritici) was 90 to 100% throughout.

For `Cc1cc(C2=NOCC(Cc3ccc(Cl)cc3Cl)N2)c(Oc2cccc(C)c2F)nn1` (racemic) [Compound I-007, (5RS)-5-(2,4-dichlorobenzyl)-3-[3-(2-fluoro-3-methylphenoxy)-6-methylpyridazin-4-yl]-5,6-dihydro-4H-1,2,4-oxadiazine], the chromatographic logP in data set [1] amounted to 3.91. Besides, the pest or weed control at 500 ppm (with Botrytis cinerea; with Pyrenophora teres; in the data set with Sphaerotheca fuliginea; in [2]; in the data set with Alternaria brassicae) was 90 to 100% each time. Besides, the inhibition at 20 ppm (in the data set with Alternaria alternata; in the data set on Fusarium culmorum; in the data set on Pyricularia Oryzae; in data set [3]; in the data set with Septoria tritici) was 90 to 100% throughout.

On to `Cc1cc(C)cc(CC2CON=C(c3cc(C)nnc3Oc3cccc(Cl)c3F)N2)c1` (racemic) [Compound I-010, (5RS)-3-[3-(3-chloro-2-fluorophenoxy)-6-methylpyridazin-4-yl]-5-(3,5-dimethylbenzyl)-5,6-dihydro-4H-1,2,4-oxadiazine], for which the chromatographic logP in data set [1] came to 4.01. Besides, the pest or weed control at 500 ppm (in the data set on Botrytis cinerea; in the data set on Pyrenophora teres; in the data set on Sphaerotheca fuliginea; in data set [2]; in the data set with Alternaria brassicae) was 90 to 100% each time. In addition, the inhibition at 20 ppm (in the data set on Alternaria alternata; with Fusarium culmorum; with Pyricularia Oryzae; in data set [3]; in the data set with Septoria tritici) was 90 to 100% throughout.

Compound `Cc1ccc(C)c(CC2CON=C(c3cc(C)nnc3Oc3cccc(Cl)c3)N2)c1` (racemic) [Compound I-011, (5RS)-3-[3-(3-chlorophenoxy)-6-methylpyridazin-4-yl]-5-(2,5-dimethylbenzyl)-5,6-dihydro-4H-1,2,4-oxadiazine] returned a chromatographic logP in data set [1] of 3.7. Moreover, the pest or weed control at 500 ppm (in the data set on Botrytis cinerea; with Pyrenophora teres; in the data set with Sphaerotheca fuliginea; in data set [2]; in the data set on Alternaria brassicae) was 90 to 100% in each case. Further, the inhibition at 20 ppm lay within 90 to 100% in the data set on Alternaria alternata; 70 to 79% in the data set with Fusarium culmorum; 90 to 100% in the data set on Pyricularia Oryzae; 90 to 100% in [3]; 90 to 100% in the data set on Septoria tritici.

For the compound `Cc1ccc(C)c(CC2CON=C(c3cc(C)nnc3Oc3cccc(Cl)c3F)N2)c1` (racemic) [Compound I-012, (5RS)-3-[3-(3-chloro-2-fluorophenoxy)-6-methylpyridazin-4-yl]-5-(2,5-dimethylbenzyl)-5,6-dihydro-4H-1,2,4-oxadiazine], the chromatographic logP in data set [1] is 3.8. Moreover, the pest or weed control at 500 ppm (with Botrytis cinerea; in the data set with Pyrenophora teres; with Sphaerotheca fuliginea; in data set [2]; in the data set with Alternaria brassicae) was 90 to 100% each time. In addition, the inhibition at 20 ppm (in the data set on Alternaria alternata; in the data set with Fusarium culmorum; with Pyricularia Oryzae; in data set [3]; in the data set with Septoria tritici) was 90 to 100% each time.

`CCc1cccc(Oc2nnc(C)cc2C2=NOCC(Cc3ccc(C)cc3C)N2)c1F` (racemic) [Compound I-014, (5RS)-5-(2,4-dimethylbenzyl)-3-[3-(3-ethyl-2-fluorophenoxy)-6-methylpyridazin-4-yl]-5,6-dihydro-4H-1,2,4-oxadiazine] displayed a chromatographic logP in data set [1] of 4.12. Besides, the pest or weed control at 500 ppm (with Botrytis cinerea; in the data set on Pyrenophora teres; with Sphaerotheca fuliginea; in [2]; with Alternaria brassicae) was 90 to 100% throughout. Besides, the inhibition at 20 ppm (with Alternaria alternata; in the data set with Fusarium culmorum; with Pyricularia Oryzae; in data set [3]; in the data set with Septoria tritici) was 90 to 100% each time.
